Here are results for two compounds from patent US20260216180A1, “QUINOLINE DERIVATIVE COMPOUNDS OR PHARMACEUTICALLY ACCEPTABLE SALT THEREOF, PREPARATION METHOD THEREFOR AND USE THEREOF” (JIANGSU CAREPHAR PHARMACEUTICAL CO.,LTD., priority 2023, published 2026).

pIC50: −log10 of the molar value. Where two headings read alike, the source gives them in different places.

In one assay the target is T1, CYP2C19 (Homo sapiens, UniProt P33261).
T1 construct: Commercially available mixed human liver microsomes were used; from tissue; host or cells: pooled human liver microsomes
T1 sequence (P33261 whole entry): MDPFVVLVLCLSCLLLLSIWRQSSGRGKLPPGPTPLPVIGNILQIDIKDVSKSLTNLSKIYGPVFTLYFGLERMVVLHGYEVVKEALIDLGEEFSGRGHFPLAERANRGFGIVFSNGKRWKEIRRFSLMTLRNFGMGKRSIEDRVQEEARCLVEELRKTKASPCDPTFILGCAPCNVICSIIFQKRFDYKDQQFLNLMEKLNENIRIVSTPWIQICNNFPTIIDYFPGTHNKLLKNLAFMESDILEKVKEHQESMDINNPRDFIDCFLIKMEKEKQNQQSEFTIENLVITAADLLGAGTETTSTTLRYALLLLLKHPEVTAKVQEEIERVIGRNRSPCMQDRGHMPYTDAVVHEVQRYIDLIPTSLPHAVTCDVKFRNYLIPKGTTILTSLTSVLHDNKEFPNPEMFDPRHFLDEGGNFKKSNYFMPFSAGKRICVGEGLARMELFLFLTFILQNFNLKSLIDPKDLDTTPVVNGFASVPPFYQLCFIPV
The assay can be described thus: CYP enzyme inhibition, human liver microsomes, CYP2C19. It counts as in vitro ADME. The settings on record: probe substrate S-Mephenytoin, read-out: IC50 CYP 2C19. The protocol: (§1) Commercially available mixed human liver microsomes were used, with the liver microsome concentrations of diclofenac, dextromethorphan, and midazolam being 0.1 mg/mL; and the liver microsome concentrations of phenacetin, bupropion, amodiaquine, mephenytoin, and testosterone being 0.2 mg/mL. Probe substrate, specific inhibitor and test compound (ABX464, compound 18) were diluted to the corresponding concentration of working solution for use. A mixed solution containing liver microsomes, MgCl2, substrate, […] inhibitor, and the test compound was prepared. After the incubation, 600 μL of ice-cold ACN working solution containing IS was added to terminate the reaction, and the mixture was centrifuged and used for LC-MS/MS detection. [table] At different concentrations of the test compound or positive inhibitor, the percentage of remaining activity is determined by the ratio of the amount of characteristic metabolites of the probe substrate generated to the corresponding amount generated in the absence of the test compound or positive inhibitor. […]

The next assay addresses T2, CYP2C8 (Homo sapiens, UniProt P10632).
T2 construct: Commercially available mixed human liver microsomes were used; from tissue; host or cells: pooled human liver microsomes
T2 sequence (P10632 1-490): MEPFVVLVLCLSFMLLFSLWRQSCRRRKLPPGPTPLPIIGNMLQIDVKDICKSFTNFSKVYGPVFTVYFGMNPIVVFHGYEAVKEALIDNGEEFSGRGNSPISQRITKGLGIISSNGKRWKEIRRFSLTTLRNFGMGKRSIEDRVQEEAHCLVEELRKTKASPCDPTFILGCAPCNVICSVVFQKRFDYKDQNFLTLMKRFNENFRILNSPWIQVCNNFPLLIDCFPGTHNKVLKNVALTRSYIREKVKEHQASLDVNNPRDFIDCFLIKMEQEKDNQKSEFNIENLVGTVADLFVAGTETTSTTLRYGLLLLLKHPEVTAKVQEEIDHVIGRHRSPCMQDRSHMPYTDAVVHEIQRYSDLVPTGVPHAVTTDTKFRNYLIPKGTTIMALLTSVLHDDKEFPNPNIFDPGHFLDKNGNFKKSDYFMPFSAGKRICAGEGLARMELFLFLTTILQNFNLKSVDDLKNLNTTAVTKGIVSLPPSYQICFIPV
The assay can be described thus: CYP enzyme inhibition, human liver microsomes, CYP2C8. It counts as in vitro ADME. The following applies: probe substrate Amodiaquine, read-out: IC50 CYP 2C8. The protocol: as §1

In the next assay the target is T3, CYP2D6 (Homo sapiens, UniProt P10635).
T3 construct: Commercially available mixed human liver microsomes were used; from tissue; host or cells: pooled human liver microsomes
T3 sequence (P10635 whole entry): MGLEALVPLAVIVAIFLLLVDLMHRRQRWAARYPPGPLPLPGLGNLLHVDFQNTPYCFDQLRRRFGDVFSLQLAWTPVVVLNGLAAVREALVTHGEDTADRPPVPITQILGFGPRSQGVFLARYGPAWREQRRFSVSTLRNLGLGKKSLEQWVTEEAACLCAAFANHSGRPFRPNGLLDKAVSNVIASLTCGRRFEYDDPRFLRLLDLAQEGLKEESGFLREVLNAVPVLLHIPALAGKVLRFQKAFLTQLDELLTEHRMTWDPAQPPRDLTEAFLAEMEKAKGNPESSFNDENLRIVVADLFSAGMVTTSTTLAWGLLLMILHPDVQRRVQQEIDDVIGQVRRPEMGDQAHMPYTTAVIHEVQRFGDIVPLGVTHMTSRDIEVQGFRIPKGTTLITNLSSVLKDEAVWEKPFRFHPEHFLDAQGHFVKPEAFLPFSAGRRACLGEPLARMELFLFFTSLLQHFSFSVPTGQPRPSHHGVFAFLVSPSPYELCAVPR
Kind of assay: CYP enzyme inhibition, human liver microsomes, CYP2D6. It counts as in vitro ADME. The settings on record: probe substrate Dextromethorphan, read-out: IC50 CYP 2D6. As for the experimental part:
as §1

Another assay has as its target T4, CYP1A2 (Homo sapiens, UniProt P05177).
T4 construct: Commercially available mixed human liver microsomes were used; from tissue; host or cells: pooled human liver microsomes
T4 sequence (P05177 1-516): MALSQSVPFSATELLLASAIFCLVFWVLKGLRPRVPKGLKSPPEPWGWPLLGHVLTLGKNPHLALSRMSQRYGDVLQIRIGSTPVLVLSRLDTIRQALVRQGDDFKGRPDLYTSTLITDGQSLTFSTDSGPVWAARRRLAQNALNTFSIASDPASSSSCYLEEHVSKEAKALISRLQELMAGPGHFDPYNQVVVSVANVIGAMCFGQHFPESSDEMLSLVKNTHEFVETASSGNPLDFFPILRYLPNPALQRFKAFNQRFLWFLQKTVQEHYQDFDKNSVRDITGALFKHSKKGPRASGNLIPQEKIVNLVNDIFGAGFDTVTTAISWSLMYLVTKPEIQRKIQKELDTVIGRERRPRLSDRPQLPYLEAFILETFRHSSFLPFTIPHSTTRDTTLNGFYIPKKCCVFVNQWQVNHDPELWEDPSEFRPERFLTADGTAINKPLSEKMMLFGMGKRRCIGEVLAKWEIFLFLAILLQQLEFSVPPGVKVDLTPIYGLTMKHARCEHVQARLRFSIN
Kind of assay: CYP enzyme inhibition, human liver microsomes, CYP1A2. It counts as in vitro ADME. The settings on record: probe substrate Phenacetin; for pIC50: read-out: IC50 CYP 1A2. The protocol: (§2) Commercially available mixed human liver microsomes were used, with the liver microsome concentrations of diclofenac, dextromethorphan, and midazolam being 0.1 mg/mL; and the liver microsome concentrations of phenacetin, bupropion, amodiaquine, mephenytoin, and testosterone being 0.2 mg/mL. Probe substrate, specific inhibitor and test compound (ABX464, compound 18) were diluted to the corresponding concentration of working solution for use. A mixed solution containing liver microsomes, MgCl2, substrate, […] inhibitor, and the test compound was prepared. After the incubation, 600 μL of ice-cold ACN working solution containing IS was added to terminate the reaction, and the mixture was centrifuged and used for LC-MS/MS detection. [table] At different concentrations of the test compound or positive inhibitor, the percentage of remaining activity is determined by the ratio of the amount of characteristic metabolites of the probe substrate generated to the corresponding amount generated in the absence of the test compound or positive inhibitor. If a significant decrease in the amount of metabolite production is found at the highest concentration setting point, the half inhibitory concentration (IC50) will be calculated using the log(inhibitor) vs. response—Variable slope formula of GraphPad Prism software: Y=Bottom+(Top−Bottom)/(1+10^((Log IC50−X)*Hillslope)) • X: Log (test compound or positive inhibitor concentration); • Y: Remaining activity percentage; • Top and Bottom: refer to the theoretical maximum and minimum remaining activity percentages respectively; and • Hillslope: slope coefficient or slope. If there is no significant decrease in metabolite production at the highest concentration setting point (percentage of enzyme remaining activity […]), the half inhibitory concentration (IC50) cannot be accurately calculated, and the reported IC50 is greater than the highest concentration tested.

The subject of the next assay is IL-6. Kind of assay: Macrophage IL-6 secretion after LPS (ELISA). It counts as cell-based. The settings on record: Bone marrow macrophage, compared to 0 μM, mouse bone marrow macrophages, 200 ng/ml LPS, 6 hours, read-out: Inhibition rate of IL-6 at 10 μM concentration. The protocol: (§3) Pharmacological Activity Test: Regulatory Effect of Quinoline Derivatives on Macrophage IL-6 and TNF-α Secretion
(§4) Mouse bone marrow cells were isolated from the femur and tibia bone marrow of […] mice of 6-8 week old raised under SPF conditions and inoculated in 6-well plates at a density of 1.5*10^6 cells/well/2 mL. 50 ng/mL M-CSF was added to each well and the cells were cultured in a CO2 incubator for 3 days. On the third day, the culture medium was replaced with fresh medium containing 100 ng/mL M-CSF and the culture was continued for 3 days. On the 6th day, the supernatant was removed and the cells were washed once with DPBS. After adding 1 mL of DPBS, the macrophages were harvested using a cell scraper, centrifuged at 400 g for 10 min, and the supernatant was discarded. The cells were resuspended in fresh culture medium containing 50 ng/mL M-CSF, inoculated in a 96-well plate at a density of 2*10^4 cells/well/200 μL, and cultured in a CO2 incubator overnight. 0, 3, 5, […] of the test compound were added to each well (wherein well 0 contains 0.1% DMSO) respectively and incubate in a CO2 incubator for 1 hour. Then 200 ng/ml LPS was added and the cell supernatant was collected after 6 hours of co-culture. ELISA kits were used to detect the secretion levels of IL-6 and TNF-α.

The target of a further assay is T5, CYP3A4 (Homo sapiens, UniProt P08684).
T5 construct: Commercially available mixed human liver microsomes were used; from tissue; host or cells: pooled human liver microsomes
T5 sequence (P08684 whole entry): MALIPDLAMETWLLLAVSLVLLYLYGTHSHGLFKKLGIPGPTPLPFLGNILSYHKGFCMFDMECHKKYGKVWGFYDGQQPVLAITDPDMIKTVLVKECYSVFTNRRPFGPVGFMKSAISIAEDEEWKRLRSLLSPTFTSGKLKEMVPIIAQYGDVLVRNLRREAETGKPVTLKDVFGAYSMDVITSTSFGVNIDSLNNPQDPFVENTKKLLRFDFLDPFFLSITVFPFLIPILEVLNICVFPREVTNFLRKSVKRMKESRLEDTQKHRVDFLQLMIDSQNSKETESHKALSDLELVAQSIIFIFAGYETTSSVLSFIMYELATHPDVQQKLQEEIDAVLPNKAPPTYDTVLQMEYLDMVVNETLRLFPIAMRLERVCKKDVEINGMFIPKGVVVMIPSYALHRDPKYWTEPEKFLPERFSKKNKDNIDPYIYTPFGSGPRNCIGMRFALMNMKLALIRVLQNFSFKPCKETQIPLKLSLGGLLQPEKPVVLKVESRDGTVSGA
The assay can be described thus: CYP enzyme inhibition, human liver microsomes, CYP3A4. It counts as in vitro ADME. As for the experimental part:
as §2

The target of a further assay is T6, CYP2C9 (Homo sapiens, UniProt P11712).
T6 construct: Commercially available mixed human liver microsomes were used; from tissue; host or cells: pooled human liver microsomes
T6 sequence (P11712 whole entry): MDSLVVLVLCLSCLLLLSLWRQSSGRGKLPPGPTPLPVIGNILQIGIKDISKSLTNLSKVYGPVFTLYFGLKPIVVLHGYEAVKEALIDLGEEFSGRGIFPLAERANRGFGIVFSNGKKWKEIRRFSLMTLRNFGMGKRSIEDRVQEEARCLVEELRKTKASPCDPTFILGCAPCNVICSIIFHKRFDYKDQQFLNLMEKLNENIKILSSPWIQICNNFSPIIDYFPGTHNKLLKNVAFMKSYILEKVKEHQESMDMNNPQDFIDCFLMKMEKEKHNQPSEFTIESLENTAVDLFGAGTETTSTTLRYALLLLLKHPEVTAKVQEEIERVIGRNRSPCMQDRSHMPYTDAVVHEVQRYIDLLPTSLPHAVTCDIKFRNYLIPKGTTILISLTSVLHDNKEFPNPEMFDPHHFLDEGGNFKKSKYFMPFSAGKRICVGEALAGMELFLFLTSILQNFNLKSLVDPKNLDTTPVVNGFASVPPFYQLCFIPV
The assay can be described thus: CYP enzyme inhibition, human liver microsomes, CYP2C9. It counts as in vitro ADME. The following applies: probe substrate Diclofenac, read-out: IC50 CYP 2C9. As for the experimental part: as §1

In the next assay the test system is TNF-α. Kind of assay: Macrophage TNF-α secretion after LPS (ELISA). It counts as cell-based. The following applies: Bone marrow macrophage, compared to 0 μM, mouse bone marrow macrophages, 200 ng/ml LPS, 6 hours, read-out: Inhibition rate of TNFα at 10 μM concentration. As for the experimental part: as §3, §4
Where [1] appears, read: probe substrate Midazolam, read-out: IC50 CYP 3A4-Midazolam.
The mark [2] stands for this setting: probe substrate Testosterone, read-out: IC50 CYP 3A4-Testosterone.

Consider `FC(F)(F)Oc1ccc(Nc2ccc3cccc(Cl)c3n2)cc1` [ABX464, reference compound], for which the pIC50 on CYP2C19 was 5.31; at CYP2C8 it was 4.44; at CYP2D6, 4.76; at CYP1A2, 7.01; at CYP3A4 (setting [1]), 4.14; on CYP3A4 (setting [2]), under 4.00. Also, the pIC50 at CYP2C9 is 4.82. For the same compound, the inhibition at 10 µM in the assay on IL-6 was 61%; with TNF-α it was 80%.

For the compound `Fc1cc(Cl)c2nc(Nc3ccc(C4(C(F)(F)F)CC4)cc3)ccc2c1` [Compound 18, 8-chloro-6-fluoro-N-(4-(1-(trifluoromethyl)cyclopropyl)phenyl)quinolin-2-amine], the pIC50 on CYP2C19 was 5.24; at CYP2C8, 4.39; on CYP2D6 it was 4.32; on CYP1A2, 4.67; at CYP3A4 (setting [1]), under 4.00; at CYP3A4 (setting [2]), under 4.00. For the same compound, on CYP2C9, the pIC50 was 4.69. Also, at CYP1A2, the “IC50 CYP 1A2” value was “significantly superior to ABX464”. Besides, the inhibition at 10 µM was determined as 88% in the assay with IL-6 and 94% with TNF-α.
